Patent EP0567324A1, “Medicaments for treating gar-transformylase-dependent tumors” (ELI LILLY AND COMPANY, priority 1992, dated 1993)

Key:
[1] = tested on: adenocarcinoma originating in the ethmoid sinus; conditions: human, in vivo
[2] = tested on: aggressive soft tissue sarcoma characterized as either a malignant Schwannoma or a tendosynovial sarcoma; conditions: human, in vivo

Nc1nc2c(c(=O)[nH]1)C[C@@H](CCc1ccc(C(=O)N[C@@H](CCC(=O)O)C(=O)O)cc1)CN2 [Lometrexol, 5,10-dideaza-5,6,7,8-tet-rahydrofolic acid]
change of massively enlarged liver (hepatic metastases) after treatment [1]: marked shrinkage | duration of prolonged thrombocytopenia and anemia [1]: over 7 weeks | persistent anemia at a Hgb of [1]: 5.4 | clinical response in the irradiated field [2]: dramatic | lometrexol retention in the patients body [2]: prolonged | mucositis due to the drug [2]: mild mucositis | thrombocytopenia to [2]: 55,000 | tumor course after lometrexol, before radiation [2]: continued to rapidly progress
